Each structure is given as a SMILES string. ≈ marks a conversion by molar mass, not a printed value. Entries after “also recorded” stand apart in the source; their conditions may differ. Like-named read-outs stand apart in the source and are kept apart here.

One experiment has as its system S. sclerotiorum mycelium. In words: Suppression of S. sclerotiorum mycelial growth, susceptibility test discs on PDA. The format is cell-based, Sclerotinia sclerotiorum. The following applies: S. sclerotiorum; qualitative. How it is done: For testing effects of haterumalide A, halves of surface sterilized and bisected sclerotia were placed in the center PDA plates (9 cm in diameter) to initiate mycelial growth of S. sclerotiorum. The metabolite, at a concentration from 0.05 to 5 μg ml^−1 diluted in MeOH/H2O (1:1), was then spotted directly onto sterile antimicrobial susceptibility test discs (Oxoid Ltd) located at four equidistant places, giving a total of 0.2 to 20 μg ml^−1 compound per one Petri plate. The treatments were performed in triplicate. Zones of inhibition of mycelial growth were measured after 4 days and reduction of mycelial growth was calculated as a percentage of MeOH/H2O controls.

Experiment [1] relates to S. sclerotiorum sclerotia. In words: Suppression of apothecial formation - microtiter plate assay 2. The experiment is classed as cell-based, Sclerotinia sclerotiorum. The following applies: for inhibition of apothecial formation of sclerotia: S. sclerotiorum, qualitative; for MIC: Sclerotinia sclerotiorum. The procedure:
Twenty four-well microtiter plates were used to test the effect of the purified metabolites on apothecial formation in a concentration range between 0.01 μg ml^−1 and 100 μg ml^−1. To obtain respective concentrations of tested metabolites, the appropriate volume out of the respective metabolite stock solutions of 100 μg ml^−1, 10 μg ml^−1 and 1 μg ml^−1, dissolved in acetonitrile, was distributed into the wells and the solvent was then evaporated. Thereupon, the metabolites were dissolved in sterile H2O and one, or in some tests two, preconditioned sclerotia were placed into each well. Tests were done in triplicate and controls were sclerotia placed in sterile water only.
(§1) The activity of haterumalide A, B and E, and of pyrrolnitrin to inhibit the spore germination of A. fumigatus, F. culmorum, F. oxysporum, H. annosum, M. canis, P. ultimum and S. sclerotiorum as well as the inhibition of the C. albicans growth was tested by using the microtiter plate assay 1 described in Example 7. The effect on apothecial formation of S. sclerotiorum sclerotia was assayed by using microtiter plate assay 2 described in Example 7.

The test system of experiment [2] is S. sclerotiorum ascospores. Put plainly: Suppression of spore germination - microtiter plate assay 1. The experiment is classed as cell-based, Sclerotinia sclerotiorum. The following applies: for inhibition of ascospore germination: S. sclerotiorum, qualitative; for MIC: Sclerotinia sclerotiorum, read-out: Minimal Inhibitory Concentration (MIC) to totally inhibit spore germination. The procedure: (§2) To obtain the A. fumigatus conidiospores, the fungus was grown on ME slants for about 2 weeks at 28° C. The F. culmorum and F. oxysporum conidia, the H. annosum basidiospores, the M. canis macroconidia were produced by inoculating fungal plugs on Corn Meal Agar plates (CMA, Difco Ltd.), Hagem Agar plates (5 g glucose, 5 g ME, 0.5 g NH4NO3, 0.5 g KH2PO4, 0.5 g MgSO4×7H2O, 20 g Agar in 1000 ml deionized H2O) and Oat Meal Agar plates (60 g oat meal, 12.5 g Agar in 1000 ml deionized H2O), respectively, for a period of 5 to 10 days at 25° C. Ascospores of S. sclerotiorum were collected during their dispersal from apothecia by entrapping them on the surface of a water agar (12 g Bacto Agar (Difco Ltd)), 1000 ml H2O). Mature spores were then scraped off or washed out from the surface of the agar plates, with 0,5% Bacto Peptone (Difco Ltd) supplemented with 0.01% Tween 80. The P. ultimum sporangia were obtained by. growing the fungus on grass blades (Martin, 1992). The C. albicans stock culture of 1.0×10^6 cfu ml^−1 was prepared from a 24-hours old culture grown on Yeast Malt Agar plates (YM Agar, Difco Ltd) at 37° C. by suspending it in 0.5% Bacto Peptone and adjusting the optical density of this culture to an absorbance of 0.5 at 600 nm. The spore concentration was counted by using a Bürker chamber, and stock spore suspensions were stored at −70 ° C. for further use. The spore concentrations in respective stock suspensions, as well as the spore concentrations and media to culture fungi in a microtiter plate assay, are listed in Table 2 below.
(§3) To follow the activity during purification, HPLC-fractions to be tested were directly collected to 96-well microtiter plates by using a fraction collector (FC 204, Gilson), and mainly the activity to inhibit the germination of F. culmorum conidia and S. sclerotiorum ascospores was tested. […] The solvents were always evaporated, and one hundred μl of spore suspension, suspended in the appropriate media as listed in Table 2, were then distributed into each well. Depending on the fungus tested, the spore germination was monitored after 24 to 96 hours of incubation at 25° C. in darkness except for A. fumigatus and C. albicans which were incubated at 28 ° C. and 37 ° C. Controls were spores suspended in respective culturing media and culturing media only. All tests were done in triplicate and repeated at least twice.
as §1

Another experiment deals with Stellaria media. Put plainly: Foliar spraying of Stellaria media with A 153 culture preparations and haterumalide B. The experiment is classed as in vivo. The following applies: Stellaria media 6-8 leaf stage; 4 ml/4 plants/pot; no concentration factor printed.
The test system of a further experiment is F. oxysporum conidia. Put plainly: Suppression of spore germination - microtiter plate assay 1. The experiment is classed as cell-based. The following applies: Fusarium oxysporum, read-out: Minimal Inhibitory Concentration (MIC) to totally inhibit spore germination. How it is done:
as §2, §3, §1

The next experiment relates to F. culmorum conidia. The description is as above. The following applies: Fusarium culmorum, read-out: Minimal Inhibitory Concentration (MIC) to totally inhibit spore germination. The format is cell-based. The procedure: as §2, §3, §1
The test system of another experiment is P. ultimum sporangia. The experiment is described as above. The format is cell-based. As to conditions: Globisporangium ultimum, read-out: Minimal Inhibitory Concentration (MIC) to totally inhibit spore germination. How it is done:
as §2, §3, §1

The test system of experiment [3] is A. fumigatus conidiospores. Described as above. The experiment is classed as cell-based. The following applies: Aspergillus fumigatus, read-out: Minimal Inhibitory Concentration (MIC) to totally inhibit spore germination. The procedure: as §2, §3, §1
For another experiment, the system named is H. annosum basidiospores. The description is as above. The following applies: Heterobasidion annosum, read-out: Minimal Inhibitory Concentration (MIC) to totally inhibit spore germination. The format is cell-based. How it is done:
as §2, §3, §1

For experiment [4], the system named is green algae (Scenedesmus quadricauda). In words: Growth of green algae in Z8 medium. As to conditions: concentrations similar to those used for the Lemna minor test; preliminary. The experiment is classed as cell-based. The procedure: Additionally, the similar method was used to preliminary test the effect of haterumalide B on the growth of green algae (Scenedesmus quadricauda). Evaporated haterumalide B was dissolved in a sterile Z8 medium with the suspension of algae. Tests were performed in duplicate with suspensions of Scenedesmus quadricauda placed in only sterile Z8 medium as controls.

In another experiment the test system is M. canis macroconidia. In words: Suppression of spore germination - microtiter plate assay 1. The format is cell-based, Microsporum canis var. canis. The following applies: Microsporum canis, read-out: Minimal Inhibitory Concentration (MIC) to totally inhibit spore germination. How it is done: as §2, §3
The activity of haterumalide A, B and E, and of pyrrolnitrin to inhibit the spore germination of A. fumigatus, F. culmorum, F. oxysporum, H. annosum, M. canis, P. ultimum and S. sclerotiorum as well as the inhibition of the C. albicans growth was tested by using the microtiter plate assay 1 described in Example 7. […]

In the next experiment the test system is Lemna minor. Put plainly: Differentiation and growth of Lemna minor, 24-well microtiter plates. The format is in vivo. As to conditions: for Number of Lemna minor fronts (leaves) per one microtiter plate well, End of test: 10 fronts at beginning, control 36. The procedure: Twenty four-well microtiter plates were used to test the effect of the purified haterumalide B on differentiation and growth of Lemna minor in a concentration range between 1 μg ml^−1 and 60 μg ml^−1. To obtain respective concentrations of the tested metabolite, the appropriate volume out of the respective metabolite stock solutions of 100 μg ml^−1 and 10 μg ml^−1, dissolved in acetonitrile, was distributed into the wells, and the solvent was then evaporated. Thereupon, the metabolite was dissolved in a sterile Lemna medium and three Lemna minor plants with 10 fronts were placed into each well. Tests were done in duplicate and controls were Lemna minor plants placed in only Lemna medium.

Setting [5] is: read-out: Minimal Inhibitory Concentration (MIC) to totally inhibit apothecial formation of sclerotia, S. sclerotiorum sclerotia.

Description for Stellaria media: Fifty per cent strength TSB medium (TSB, 15 g Tryptic Soy Broth (Difco Ltd) and 1000 ml deionized H2O) were used to culture all bacterial isolates. The cultures, 50 ml, 250 ml and 1000 ml, respectively, were grown in 100 ml, 500 ml and 2000 ml Erlenmeyer flasks and were initiated either by transferring a single colony from the TSA plate or by transferring 0.1 ml of a 24-hours old starter inoculum per 5 ml of fresh medium. The cultures were incubated on a rotary shaker (120 rev min^−1) for 48 hours at 20° C. in darkness, and the cell densities obtained were then approximately from 1 to 1.5×10^0 cfu ml^−1. Only 48-hours old cultures were used in the screening and purification procedures
Preparations of the culture of the isolate A 153, namely cell free supernatant, washed cells suspended respectively in buffer and in TSB, cell lysate as well as ethyl acetate and aqueous phase residue extracts of the cell free supernatant and purified haterumalide B, were tested for their effects on growth of Stellaria media, a typical plant weed.
Bacterial cell free supernatants were obtained by centrifugation (Sorvall RC 5B centrifuge, 20000×g, 20 min, 4° C. or 15000×g, 30 min, 4° C.) and subsequent filter-sterilization (Akafilter, Västra Frolunda, Sweden). […]

In the case of `CC(=O)O[C@H]1CC(=O)OC2CC(CC/C(Cl)=C/C/C=C\1C)O[C@H]2[C@H]1C=C(C)CC(=O)O1` (stereo partly shown) [Haterumalide X], the “inhibition of mycelial growth” value with S. sclerotiorum mycelium is reported as “ability to inhibit”. Also, in experiment [1], the “inhibition of apothecial formation of sclerotia” value (shortened to “inhibition … of sclerotia”) is given as “ability to inhibit”. In addition, the “inhibition of ascospore germination” value in [2] is “ability to inhibit”.

In the case of `C=C(COC(=O)C/C(C)=C/[C@@H](O)[C@@H]1OC2CC/C(Cl)=C/C/C=C(/C)[C@@H](OC(C)=O)CC(=O)OC1C2)C(C)=O` (stereo partly shown) [Haterumalide B], the “Plants Surviving” value with Stellaria media is on record as 0.0. For the same compound, in the experiment with Stellaria media, the “Shot Fresh Weight” value is listed as 0.1 g. Besides, the MIC with F. oxysporum conidia amounted to 0.8 µg/mL (≈ 1.45 µM); with F. culmorum conidia, 1 µg/mL (≈ 1.81 µM); in the experiment on P. ultimum sporangia, 1 µg/mL (≈ 1.81 µM); in experiment [3], 13 µg/mL (≈ 23.5 µM); with H. annosum basidiospores, 20 µg/mL (≈ 36.2 µM); in experiment [1] (setting [5]), 0.5 µg/mL (≈ 0.904 µM). Moreover, the results for the MIC (in the experiment with M. canis macroconidia; in experiment [2]) were 40 µg/mL (≈ 72.3 µM) and 3 µg/mL (≈ 5.42 µM), respectively. For the same compound, the “inhibition of mycelial growth” value in the experiment on S. sclerotiorum mycelium is “ability to inhibit”. Moreover, the “inhibition … of sclerotia” value in [1] is recorded as “ability to inhibit”. In addition, the “growth of green algae” value in experiment [4] is given as “inhibits the growth”. The “inhibition of ascospore germination” value in [2] is reported as “ability to inhibit”. In addition, the “Number of Lemna minor fronts (leaves) per one microtiter plate well, End of test” value in the experiment with Lemna minor (1 μg ml-1), in the experiment on Lemna minor (5 μg ml-1), in the experiment with Lemna minor (10 μg ml-1), in the experiment on Lemna minor (30 μg ml-1) and in the experiment with Lemna minor (60 μg ml-1) was 10 throughout. The “Visible effects on Lemna fronts” value in the experiment with Lemna minor (at all tested concentrations (1 to 60 μg ml-1)) is “fronts impaired and totally; also recorded: chlorotic”. In addition, in the experiment on Lemna minor (at all tested concentrations (1 to 60 μg ml^−1)), the “differentiation and growth of Lemna minor” value is given as “totally inhibited”.

For the compound `O=[N+]([O-])c1c(Cl)cccc1-c1c[nH]cc1Cl` [Pyrrolnitrin, pyrrolnitrin, reference compound], the MIC with F. oxysporum conidia (F. oxysporum) was 20 µg/mL (≈ 77.8 µM); in the experiment on F. culmorum conidia, 0.06 µg/mL (≈ 0.233 µM); in the experiment on P. ultimum sporangia (P. ultimum) it was less than 50 µg/mL; in experiment [3] (A. fumigatus), 3 µg/mL (≈ 11.7 µM); with H. annosum basidiospores (H. annosum), 50 µg/mL (≈ 194 µM); in experiment [1] (S. sclerotiorum sclerotia, read-out: Minimal Inhibitory Concentration (MIC) to totally inhibit apothecial formation of sclerotia), less than 100 µg/mL. Moreover, the MIC with M. canis macroconidia (M. canis) was 1 µg/mL (≈ 3.89 µM); in experiment [2] (S. sclerotiorum ascospores), 10 µg/mL (≈ 38.9 µM).

In the case of `C/C1=C/C/C=C(\Cl)CCC2CC(OC(=O)C[C@@H]1O)[C@H]([C@H](O)/C=C(\C)CC(=O)O)O2` (stereo partly shown) [Haterumalide E], the MIC with F. oxysporum conidia was 25 µg/mL (≈ 58.3 µM); in the experiment with F. culmorum conidia, 5 µg/mL (≈ 11.7 µM); in the experiment on P. ultimum sporangia, 8 µg/mL (≈ 18.7 µM); in experiment [3], 15 µg/mL (≈ 35 µM); in the experiment on H. annosum basidiospores it was less than 50 µg/mL; in [1] (setting [5]), 0.5 µg/mL (≈ 1.17 µM). Besides, the values for the MIC (in the experiment with M. canis macroconidia; in experiment [2]) were less than 75 µg/mL and 3 µg/mL (≈ 6.99 µM), respectively. Also, the “inhibition of mycelial growth” value with S. sclerotiorum mycelium was “ability to inhibit”. For the same compound, in experiment [1], the “inhibition … of sclerotia” value is reported as “ability to inhibit”. Besides, the “inhibition of ascospore germination” value in experiment [2] was “ability to inhibit”.

The record behind these values is patent US20030130121A1, “Novel bacterial isolate and the preparation and use of its active metabolites” (priority 1999, published 2003).
